From PubChem BioAssay (NCI)
Values joined by “and” are separate entries in the source; they are usually repeats but may differ in a detail not shown here. Identical values can stand only once.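 Values below derive from 48-hour exposures of cells grown in 96-well plates, with endpoints linearly interpolated between the two concentrations bracketing the appropriate inhibition level. GI50 = concentration required for 50% inhibition of growth. TGI: concentration producing complete growth inhibition.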

Experiments:
Test in all cases: NCI-60 cell line screen, 48 h
[1] = tested on: COLO 205 colon
[2] = tested on: HCT-15 colon
[3] = tested on: IGROV1 ovarian
[4] = tested on: LOX IMVI melanoma
[5] = tested on: MDA-N
[6] = tested on: NCI-H522 lung
[7] = tested on: NCI/ADR-RES ovarian
[8] = tested on: SK-MEL-2 melanoma
[9] = tested on: T-47D breast
[10] = tested on: TK-10 renal

Row | SMILES | TGI [1] [µM] | TGI [2] [µM] | TGI [3] [µM] | TGI [4] [µM] | TGI [5] [µM] | TGI [6] | TGI [7] [µM] | TGI [8] [µM] | TGI [9] [µM] | TGI [10] [µM] | GI50 [6] [µM] | GI50 [1] [µM] | GI50 [2] [µM] | GI50 [3] [µM] | GI50 [7] [µM] | GI50 [8] [µM] | GI50 [9] [µM] | GI50 [10] [µM] | GI50 [4] [µM]
1 | Oc1ccc(-c2nc3ccccc3s2)cc1 | > 100 | > 100 | > 100 | 45 | > 100 | 47.9 µM | > 100 | 67.3 | 70 |  |  |  |  |  |  |  |  |  | 
2 | [N-]=[N+]=NCC(O)Cn1cnc2c(NC(=O)c3ccccc3)ncnc21 (stereo not given) | 76.9 | > 100 | > 100 | > 100 |  | > 100 µM |  | > 100 |  | > 100 |  |  |  |  |  |  |  |  | 
3 | N/C(=N\N=C\c1ncccc1O)NO | > 39.8 | > 100 | > 100 | > 100 |  | 87.9 µM | > 85.5 | > 100 |  |  |  |  |  |  |  |  |  |  | 
4 | C=C1C(C)C2C(Cc3ccccc3)NC(=O)C23OC(=O)/C=C\CC(=O)CCC(C)C/C=C/C3C1O (stereo not given) | 5.09 | 4.41 | 10.6 | 3.64 |  | 0.931 µM and 2.52 µM | 33.4 | 8.35 |  | 0.722 | 0.366 |  |  |  |  |  |  |  | 
5 | Cc1c2ccncc2c(C)c2c1[nH]c1ccc(OCCN(C)C)cc12 | 1.3 | 0.706 | 1.42 | 0.396 |  | 1.16 µM | 0.348 | 1.87 |  |  |  |  |  |  |  |  |  |  | 
6 | COc1ccc(C(=O)/C=C/c2cc(-c3cc(OC)c(OC)c(OC)c3)n[nH]2)cc1 | 3.24 | 4.37 | 4.81 |  |  | 3.2 µM | 9.85 | 19.6 | 13 | 5.77 | 1.47 | 1.73 | 1.58 | 2.21 | 2.76 | 4.14 | 2.31 | 2.22 | 
7 | CC(C)=CCC[C@@H](C)C1=C(O)C(Nc2ccccc2I)=C(C)C(=O)C1=O | 33.1 | > 75 | 17.9 | > 75 | > 75 |  | > 17.6 | 29.4 | 47.5 | > 75 |  |  |  |  |  |  |  |  | 
8 | COC(=O)Cn1cnc2c(Cl)nc(Nc3ccccc3)nc21 | > 100 | 80.4 | 56.1 | 41.4 | > 100 |  | > 100 | 48.8 | > 100 | > 100 |  |  |  |  |  |  |  |  | 
9 | CC1(C)C=C(/C=N/Nc2ccccc2)C(C#N)=C(O)C1(C#N)C#N | > 100 |  | > 100 | > 100 | > 100 | > 100 µM | > 100 |  |  | > 100 |  |  |  |  |  |  |  |  | 
10 | O=C(O)/C=C\C(=O)Nn1c(Cc2ccc(Cl)cc2)n[nH]c1=O | > 100 | > 100 | > 100 |  | > 100 | > 100 µM | > 100 | > 100 | > 100 | > 100 |  |  |  |  |  |  |  |  | 
11 | COc1ccc2cc(C(C)C(=O)N3C(=O)OCC3(C)C)ccc2c1 (stereo not given) | > 100 | > 100 | > 100 | > 100 | > 100 |  | > 100 |  | > 100 | > 100 |  |  |  |  |  |  |  |  | 
12 | S=C1SC(=Nc2ccccc2)C(=Nc2ccccc2)N1c1ccc2ccccc2c1 | > 100 | > 100 | > 100 |  | > 100 | > 100 µM | > 100 | > 100 | > 100 |  |  |  |  |  |  |  |  |  | 
13 | COc1ccccc1C1C(C#N)=C(N)Oc2n[nH]c(C)c21 (stereo not given) | > 100 | > 100 | 95.7 | > 100 |  | > 100 µM | > 100 | > 100 | > 100 | > 100 | 56.3 | > 100 | > 100 | 37.7 | > 100 | > 100 | > 100 | > 100 | > 100
14 | O=c1c2ccccc2nc2ccc3c(Cl)[nH][nH]c3c12 | > 100 | > 100 | > 100 | 58.3 |  | > 83.1 µM |  | > 100 |  | > 100 |  |  |  |  |  |  |  |  | 
15 | COC(NC(=O)Nc1ccccc1C)(C(F)(F)F)C(F)(F)F | > 100 |  | > 100 | > 100 | > 100 | > 100 µM | > 100 |  | > 100 | > 100 |  |  |  |  |  |  |  |  | 
16 | O=c1[nH]c(=O)n(C2OC(CO)C(O)C2O)cc1OCCCc1ccccc1 (stereo not given) | > 100 | > 100 | > 100 | > 100 | > 100 |  | > 100 | > 100 | > 100 | > 100 |  |  |  |  |  |  |  |  | 
17 | COc1ccc(Oc2ccccc2N)cc1 | 35.4 | > 100 | > 100 | > 100 |  |  |  | > 100 |  |  |  |  |  |  |  |  |  |  | 
18 | O=C1NC(Cc2ccc(O)cc2)C(=O)NC1Cc1ccc(O)cc1 (stereo not given) | > 100 | > 100 | > 100 | > 100 | > 100 | > 100 µM | > 100 | > 100 |  | > 100 |  |  |  |  |  |  |  |  | 
19 | O=C1/C(=C/c2cccc3ccccc23)CCc2ccc([N+](=O)[O-])cc21 | > 100 | > 100 | > 100 | > 100 | 23.4 |  | > 100 |  | > 100 | > 100 |  |  |  |  |  |  |  |  | 
20 | NC(=O)CN1C=CCC(C(N)=O)=C1 | > 100 | > 100 | > 100 | > 100 | > 100 | > 100 µM | > 100 | > 100 | > 100 |  |  |  |  |  |  |  |  |  | 
21 | CC(C)Oc1cccc(N2C(Nc3ccccc3)=Nc3ccncc3S2(=O)=O)c1 | 28.8 | 75.5 | 87.6 | 38.5 | > 100 | > 100 µM | 53.3 | > 100 | 90.1 |  |  |  |  |  |  |  |  |  | 
22 | CC1=CCC[C@H]2[C@](C)(CC3=CC(=O)C(SCC(C)C)=CC3=O)[C@@H](C)CC[C@]12C | 36.6 | 31.8 | 22.9 | 24.6 |  |  | 38.8 | 31 | 12.9 | 31.3 |  |  |  |  |  |  |  |  | 
